Experimental data taken from ChEMBL document CHEMBL1132881, “First pharmacophoric hypothesis for 5-HT7 antagonism” (Bioorg Med Chem Lett, 2000).

Target: T1, 5-hydroxytryptamine receptor 7 (Rattus norvegicus, UniProt P32305)
Test: Binding affinity towards 5-hydroxytryptamine 7 receptor

T1 sequence (P32305 whole entry): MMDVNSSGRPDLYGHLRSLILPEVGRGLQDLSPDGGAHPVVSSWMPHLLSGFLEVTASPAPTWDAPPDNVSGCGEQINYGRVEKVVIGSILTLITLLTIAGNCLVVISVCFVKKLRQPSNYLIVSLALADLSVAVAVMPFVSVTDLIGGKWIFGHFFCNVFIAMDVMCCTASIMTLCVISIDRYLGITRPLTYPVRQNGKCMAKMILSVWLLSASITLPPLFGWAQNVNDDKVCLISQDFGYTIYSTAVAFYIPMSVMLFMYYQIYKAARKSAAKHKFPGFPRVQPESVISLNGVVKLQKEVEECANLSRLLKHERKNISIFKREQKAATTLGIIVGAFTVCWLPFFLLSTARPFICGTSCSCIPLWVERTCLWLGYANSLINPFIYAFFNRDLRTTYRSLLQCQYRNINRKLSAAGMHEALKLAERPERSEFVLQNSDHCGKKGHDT

Compound | Ki
CCN(CC)C(=O)[C@@H]1C=C2c3cccc4[nH]c(Br)c(c34)C[C@H]2N(C)C1 | 10 nM
CN1C[C@H](CNC(=O)OCc2ccccc2)C[C@@H]2c3cccc4c3c(cn4C)C[C@H]21 [METERGOLINE] | 6.31 nM
Cc1nc2sccn2c(=O)c1CCN1CCC(=C(c2ccc(F)cc2)c2ccc(F)cc2)CC1 [RITANSERIN] | 15.8 nM
Cc1cccc(S(=O)(=O)N2CCC[C@@H]2CCN2CCC(C)CC2)c1 [SB-258741] | 3.16 nM

Target: T1, 5-hydroxytryptamine receptor 7
Test: Binding affinity against 5-hydroxytryptamine 7 receptor using [3H]-5-CT in rat hypothalamus membranes
Format: cell membranes, Membrane

Compound | Ki
CN1CCN(CCCCN2c3cccc4cccc(c34)S2(=O)=O)CC1 | > 10000 nM
CC1CCN(CCCCCN2c3cccc4cccc(c34)S2(=O)=O)CC1 | > 10000 nM
CC1CCN(CCCCN2c3cccc4cccc(c34)S2(=O)=O)CC1 | > 10000 nM
COc1ccccc1N1CCN(CCCCCCN2c3cccc4cccc(c34)S2(=O)=O)CC1 | 200 nM
O=S1(=O)c2cccc3cccc(c23)N1CCCCCN1CCN(c2ccccc2)CC1 | 200 nM
COc1ccccc1N1CCN(CCCCN2c3cccc4cccc(c34)S2(=O)=O)CC1 | 200 nM
O=C1c2cccc3cccc(c23)N1CCCCN1CCCCC1 | > 10000 nM
CN1CCN(CCCCN2C(=O)c3cccc4cccc2c34)CC1 | > 10000 nM
CC(C)C1CCN(CCCCN2C(=O)c3cccc4cccc2c34)CC1 | 200 nM
COc1ccccc1N1CCN(CCCCCN2C(=O)c3cccc4cccc2c34)CC1 | 100 nM
O=S1(=O)c2cccc3cccc(c23)N1CCCCN1CCCCC1 | > 10000 nM
CC1CCN(CCCCN2C(=O)c3cccc4cccc2c34)CC1 | > 1000 nM
COc1ccccc1N1CCN(CCCCN2C(=O)c3cccc4cccc2c34)CC1 | 63.1 nM
COc1ccccc1N1CCN(CCCCCN2c3cccc4cccc(c34)S2(=O)=O)CC1 | 251 nM
O=C1c2cccc3cccc(c23)N1CCCCCN1CCN(c2ccccc2)CC1 [UCM-5600] | 79.4 nM

Target: T2, 5-hydroxytryptamine receptor 7 (Homo sapiens, UniProt P34969)
Test: Binding affinity towards cloned human 5-hydroxytryptamine 7 receptor in HEK 293 cells
Format: cell-based, HEK293

T2 sequence (P34969 whole entry): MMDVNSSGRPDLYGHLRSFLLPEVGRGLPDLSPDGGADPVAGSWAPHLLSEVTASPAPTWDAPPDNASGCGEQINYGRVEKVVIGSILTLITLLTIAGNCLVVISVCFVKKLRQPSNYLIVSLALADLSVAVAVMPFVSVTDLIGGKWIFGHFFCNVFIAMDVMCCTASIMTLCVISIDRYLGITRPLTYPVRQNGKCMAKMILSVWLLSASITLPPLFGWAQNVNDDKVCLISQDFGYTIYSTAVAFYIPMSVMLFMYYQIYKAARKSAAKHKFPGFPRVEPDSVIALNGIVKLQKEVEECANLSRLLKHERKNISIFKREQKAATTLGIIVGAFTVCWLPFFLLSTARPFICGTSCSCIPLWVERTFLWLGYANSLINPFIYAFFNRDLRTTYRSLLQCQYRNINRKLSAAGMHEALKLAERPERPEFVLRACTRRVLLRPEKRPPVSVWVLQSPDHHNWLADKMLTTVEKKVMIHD

Compound | Ki
O=C1Nc2cccc3c2C1(CCCCN1CCN(C2CCCCC2)CC1)CCC3 (stereo not drawn) | 10000 nM
C[C@H]1CCCN(CC[C@H](C)N(C)S(=O)(=O)c2cccc3ccccc23)C1 | 10000 nM

Target: T2, 5-hydroxytryptamine receptor 7
Test: Binding affinity towards human recombinant 5-hydroxytryptamine 7 receptor using [3H]5-CT as radioligand

Compound | Ki
O=C1Nc2cccc3c2C1(CCCCN1CCN(c2ccccc2)CC1)CCC3 (stereo not drawn) | 3.16 nM
COc1ccccc1N1CCN(CCCCC23CCCc4cccc(c42)NC3=O)CC1 (stereo not drawn) | 5.01 nM
O=C1Nc2cccc3c2C1(CCCCN1CCC(c2ccccc2)CC1)CCC3 (stereo not drawn) | 2 nM
O=C1Nc2cccc3c2C1(CCCN1CCN(c2ccccc2)CC1)CCC3 (stereo not drawn) | 5.01 nM
O=C1Nc2cccc3c2C1(CCN1CCN(c2ccccc2)CC1)CCC3 (stereo not drawn) | 100 nM
N#Cc1ccccc1N1CCN(CCCCC23CCCc4cccc(c42)NC3=O)CC1 (stereo not drawn) | 3.98 nM
O=C1Nc2cccc3c2C1(CCCCN1CCN(c2ccccn2)CC1)CCC3 (stereo not drawn) | 2 nM
